Results reported in article PMC5142287, “Weight control interventions improve therapeutic efficacy of dacarbazine in melanoma by reversing obesity-induced drug resistance” (Cancer & Metabolism, 2016).

Assays:
[1] = Obesity-associated factors in B16F10-isografted HFD C57BL/6J mice (body weight, blood glucose, serum lipids, ELISA); assay type: in vivo; conditions: end of experiment, mean ± SD
Excerpt: C57BL/6J mice were procured from Experimental Animal Facility (EAF) at National Centre for Cell Science (NCCS), Pune, India. High fat diet (24% fat) was purchased from Provimi Animal Nutrition Pvt. Ltd., Bangalore, India, and normal diet (5% fat) was obtained from Amrut Laboratory, Pune, India. The compositions of diets are provided in supplementary data (Additional file 1: Table S1). Diet-induced obesity was developed in the mice by feeding them with high fat diet as described previously. Male C57BL/6J mice (6–8 weeks old) were divided into normal diet (ND) and high fat diet (HFD) group. ND group was fed with normal diet while HFD group was fed with high fat diet supplemented with ground nut and dried coconut for 6 months. Body weight and serum chemistry profile were measured monthly to verify obesity-associated changes. Water and food were provided ad libitum to all the mice. All animal experiments were carried out as per the requirement and guidelines of the Committee for the Purpose of Control and Supervision of Experiments on Animals (CPCSEA), Government of India, and after obtaining permission of the Institutional Animal Ethics Committee (IAEC).
Blood glucose levels and serum lipids were estimated as described previously. Insulin, leptin, and adiponectin levels in the serum were estimated by mouse-specific respective ELISA kits as described. Resistin, IL-6, and TNF-α levels in the serum were detected by indirect ELISA as described previously.
(§1) To study the impact of diet-induced obesity on the outcome of DTIC therapy in melanoma, we treated B16F10 melanoma isografted obese mice with DTIC purchased from Sigma, USA (80 mg/kg intraperitoneally for five consecutive days as described previously). In addition, to look into the impact of weight loss interventions on the outcome of DTIC therapy in obese mice, mice were administered with orlistat (an antiobesity drug known to inhibit gastrointestinal lipases) and/or shifted from high fat to normal diet followed by DTIC treatment. The detailed experimental plan is illustrated in Fig. 1a. Briefly, obese mice were administered orally with orlistat (10 mg/kg on every alternate day) purchased from Enzo Life Sciences, NY, USA, and/or shifted from high fat diet to normal diet. HFD C57BL/6J mice treated with vehicle or orlistat were termed as HFD-HFD Ctrl and HFD-HFD Orli (N = 11 per each group), respectively, whereas HFD C57BL/6J mice shifted to normal diet and treated with vehicle or orlistat were grouped as HFD-ND Ctrl and HFD-ND Orli (N = 11 per each group), respectively. After 15 days, these mice were injected subcutaneously (s.c.) with B16F10 cells (2 × 10^5) in 100 μl of PBS and monitored daily for the presence of palpable tumors and dimensions were recorded on alternate days. […] Tumor volume was calculated using the formula 0.52 × length × width^2 and was followed up throughout the study.

[2] = tested on: B16F1 cells; assay: Long-term survival assay, B16F1 cells in CM from 3T3-L1 cells; assay type: cell-based, Murine
Excerpt: Additional file 1: Table S1. Composition of diets used in the study. Normal diet (ND) was procured from Amrut Laboratory Animal Feed, Pune, India, and high fat diet (HFD) was purchased from Provimi Animal Nutrition Pvt. Ltd., Bangalore, India. *, HFD was also supplemented with 400 g groundnut and 200 g dried coconut per kg body weight of mice. […] Obesity-associated parameters in the experimental ND mice recorded at the end of the experiment. ND male C57BL/6J mice were divided into two major groups. One group was orally treated with orlistat every alternate day before inoculating with B16F10 cells. The second group was orally given vehicle control on every alternate day for 8 weeks. Mice from both the groups (N = 11 per each group) were injected (s.c.) with B16F10 cells (2 × 10^5 cells/mouse in 100 μl PBS). Their body weight was monitored weekly throughout the study, and serum was collected at the end of the experiment. Blood glucose, serum TG, serum cholesterol, serum-free fatty acids, and serum LDLc were measured. Serum factors including leptin, adiponectin, insulin, resistin, IL-6, and TNF-α were estimated by ELISA. […] Effect of obesity-associated serum factors on the protein level of P-gp, Cav-1, and FASN in B16F1 cells. […] Thereafter, these cells were subjected to immunofluorescence confocal staining of the indicated molecules. The data were recorded using Zeiss LSM510 META Confocal Microscope. (Scale bar = 20 μm). […] Data were acquired on FACS Calibur and analyzed using BD CellQuest Pro software. The data are representative of experiments performed three times. (PDF 120 kb) Additional file 5: Figure S3. Effect of inhibition of FASN, Cav-1, and P-gp on response of B16F1 cells to DTIC. […] Thereafter, these cells were subjected to long-term survival assay. […] The medium was changed every 2–3 days.

[3] = tested on: B16F10 cells; assay: Long-term survival assay, B16F10 cells in serum from experimental mice; assay type: cell-based, Murine
Procedure: After 24 h, DMEM containing 5% serum collected from experimental C57BL/6J mice (as illustrated in Fig. 1) was added and cells were cultured chronically for 10 days.

[4] = tested on: B16F10 cells; assay: Long-term survival assay, B16F10 cells in CM from 3T3-L1 cells; assay type: cell-based, Murine
Procedure: 3T3-L1 cells were plated in 35-mm dishes and differentiated as described, along with vehicle or orlistat treatment (50 μM).

[5] = tested on: metastatic melanoma; design: method as in PMID 10840932; conditions: cited from earlier work
[6] = tested on: B16F10 melanoma; assay: B16F10 melanoma isograft in HFD (obese) C57BL/6J mice: tumor growth and survival; assay type: in vivo
Procedure: as §1

[7] = tested on: B16F10 cells; assay: MTT assay, B16F10 cells grown in conditioned medium from 3T3-L1 cells; conditions: for IC50: Mus musculus, 10 days, DTIC 48 h, MTT
[8] = tested on: B16F10 cells; assay: MTT assay, B16F10 cells grown in medium with 5% serum of ND or HFD mice; conditions: for IC50: Mus musculus, cells grown 10 days, DTIC 48 h, MTT
[9] = CM from differentiated ID adipocytes
[10] = CM from orlistat-treated differentiating adipocytes, DTIC at 649 μM

CN(C)/N=N/c1[nH]cnc1C(N)=O [DTIC, Dacarbazine]
Body weight ([1]; HFD-HFD (continued on HFD), orlistat 10 mg/kg oral alternate days, DTIC 80 mg/kg i.p. 5 days): 32.28 ± 1.70 (p = 0.999) g
Blood glucose ([1]; HFD-HFD): 194.50 ± 6.98 (p = 0.9997) mg/dl
Serum IL-6 ([1]; HFD-HFD): 44.99 ± 1.58 (p = 0.9999) pg/ml
Serum LDLc ([1]; HFD-HFD): 85.01 ± 1.17 (p = 0.9999) mg/dl
Serum TG ([1]; HFD-HFD): 84.17 ± 1.15 (p = 0.9999) mg/dl
Serum TNF-α ([1]; HFD-HFD): 28.67 ± 0.99 (p = 0.9708) pg/ml
Serum adiponectin ([1]; HFD-HFD): 3421 ± 198 (p = 0.9999) ng/ml
Serum cholesterol ([1]; HFD-HFD): 120.54 ± 4.49 (p = 0.9995) mg/dl
Serum free fatty acids ([1]; HFD-HFD): 2.20 ± 0.04 (p = 0.9993) mM/l
Serum insulin ([1]; HFD-HFD): 0.385 ± 0.016 (p = 0.8701) μg/l
Serum leptin ([1]; HFD-HFD): 43.11 ± 1.65 (p = 0.9999) ng/ml
Serum resistin ([1]; HFD-HFD): 2.23 ± 0.11 (p = 0.9999) ng/ml
Blood glucose ([1]; HFD-ND): 177.5 ± 5.05 (p = 0.0001) mg/dl
Serum IL-6 ([1]; HFD-ND): 35.59 ± 2.38 (p < 0.0001) pg/ml
Serum TG ([1]; HFD-ND): 69.15 ± 2.41 (p < 0.0001) mg/dl
Serum TNF-α ([1]; HFD-ND): 16.17 ± 1.91 (p < 0.0001) pg/ml
Serum adiponectin ([1]; HFD-ND): 5133 ± 228 (p < 0.0001) ng/ml
Serum free fatty acids ([1]; HFD-ND): 1.81 ± 0.05 (p < 0.0001) mM/l
Serum insulin ([1]; HFD-ND): 0.301 ± 0.02 (p < 0.0001) μg/l
Serum leptin ([1]; HFD-ND): 34.54 ± 2.3 (p < 0.0001) ng/ml
Serum resistin ([1]; HFD-ND): 1.82 ± 0.10 (p < 0.0001) ng/ml
Effect on survival [2, 9]: did not remarkably affect
Improvement of sensitivity to DTIC ([2]; CM from differentiated adipocytes, simultaneous treatment with all three inhibitors): approximately 80%
Survival remaining [2, 10]: approximately 30%
Increase of sensitivity to DTIC ([3]; HFD serum, FASN, Cav-1 and P-gp simultaneously inhibited (cerulenin, methyl β-cyclodextrin, verapamil)): approximately 80%
Reduction of cell survival ([3]; serum from orlistat-treated or diet-shifted obese mice, DTIC at 1415 μM): approximately 70%
Effect on survival [4, 9]: did not remarkably affect
Improvement of sensitivity to DTIC ([4]; CM from differentiated adipocytes, simultaneous treatment with all three inhibitors (FASN, Cav-1, P-gp)): approximately 80%
Survival remaining [4, 10]: approximately 30%
Overall response rate [5]: 20–25%
Survivability of tumor-bearing mice ([6]; HFD mice): 60 days
Survival of tumor-bearing mice ([6]; HFD mice): reduced
Survivability increase ([6]; tumor-bearing HFD mice under weight control by orlistat treatment or diet shifting, DTIC therapy): 40%
Increase of concentration for 50% cell killing, CM of differentiated adipocytes vs preadipocytes ([7]; B16F10 cells): ~ 5 fold
IC50 ([7]; B16-F10, CM from differentiated adipocytes (ID)): 3250 µM
IC50 ([7]; B16-F10, CM from undifferentiated preadipocytes (PA)): 649 µM
Increase of IC50 in HFD serum vs ND serum ([8]; B16F10 cells): ~ 5 fold
IC50 ([8]; B16-F10, HFD serum (5%)): 6690 µM
IC50 ([8]; B16-F10, ND serum (5%)): 1420 µM
